We go through 33 compounds from patent US20090118332A1, “Therapeutic Agents - 551” (AstraZeneca AB, priority 2006, published 2009).

The target of this experiment is T1, human Fatty Acid Synthase (Homo sapiens, UniProt P49327).
T1 construct: made in house
The experiment in a line: Human FAS enzyme assay (decrease in NADPH fluorescence). Format: biochemical. Particulars: for inhibition at 100 µM: % inhibition at a concentration of 100 μmolar; for IC50, inhibition of human Fatty Acid Synthase: FAS enzyme assay, IC50 from fitted sigmoid curves. The gist of the method:
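In-house human FAS was preincubated with compound and NADPH for 15 min at room temperature in 0.1 M Tris pH 7.5 with EDTA, glutathione and BSA. Malonyl CoA and acetyl CoA (500 μM and 150 μM in the added mix) were then added for 60 min. IC50 came from time-zero-subtracted NADPH fluorescence (340/460 nm).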

T1 sequence (P49327 whole entry): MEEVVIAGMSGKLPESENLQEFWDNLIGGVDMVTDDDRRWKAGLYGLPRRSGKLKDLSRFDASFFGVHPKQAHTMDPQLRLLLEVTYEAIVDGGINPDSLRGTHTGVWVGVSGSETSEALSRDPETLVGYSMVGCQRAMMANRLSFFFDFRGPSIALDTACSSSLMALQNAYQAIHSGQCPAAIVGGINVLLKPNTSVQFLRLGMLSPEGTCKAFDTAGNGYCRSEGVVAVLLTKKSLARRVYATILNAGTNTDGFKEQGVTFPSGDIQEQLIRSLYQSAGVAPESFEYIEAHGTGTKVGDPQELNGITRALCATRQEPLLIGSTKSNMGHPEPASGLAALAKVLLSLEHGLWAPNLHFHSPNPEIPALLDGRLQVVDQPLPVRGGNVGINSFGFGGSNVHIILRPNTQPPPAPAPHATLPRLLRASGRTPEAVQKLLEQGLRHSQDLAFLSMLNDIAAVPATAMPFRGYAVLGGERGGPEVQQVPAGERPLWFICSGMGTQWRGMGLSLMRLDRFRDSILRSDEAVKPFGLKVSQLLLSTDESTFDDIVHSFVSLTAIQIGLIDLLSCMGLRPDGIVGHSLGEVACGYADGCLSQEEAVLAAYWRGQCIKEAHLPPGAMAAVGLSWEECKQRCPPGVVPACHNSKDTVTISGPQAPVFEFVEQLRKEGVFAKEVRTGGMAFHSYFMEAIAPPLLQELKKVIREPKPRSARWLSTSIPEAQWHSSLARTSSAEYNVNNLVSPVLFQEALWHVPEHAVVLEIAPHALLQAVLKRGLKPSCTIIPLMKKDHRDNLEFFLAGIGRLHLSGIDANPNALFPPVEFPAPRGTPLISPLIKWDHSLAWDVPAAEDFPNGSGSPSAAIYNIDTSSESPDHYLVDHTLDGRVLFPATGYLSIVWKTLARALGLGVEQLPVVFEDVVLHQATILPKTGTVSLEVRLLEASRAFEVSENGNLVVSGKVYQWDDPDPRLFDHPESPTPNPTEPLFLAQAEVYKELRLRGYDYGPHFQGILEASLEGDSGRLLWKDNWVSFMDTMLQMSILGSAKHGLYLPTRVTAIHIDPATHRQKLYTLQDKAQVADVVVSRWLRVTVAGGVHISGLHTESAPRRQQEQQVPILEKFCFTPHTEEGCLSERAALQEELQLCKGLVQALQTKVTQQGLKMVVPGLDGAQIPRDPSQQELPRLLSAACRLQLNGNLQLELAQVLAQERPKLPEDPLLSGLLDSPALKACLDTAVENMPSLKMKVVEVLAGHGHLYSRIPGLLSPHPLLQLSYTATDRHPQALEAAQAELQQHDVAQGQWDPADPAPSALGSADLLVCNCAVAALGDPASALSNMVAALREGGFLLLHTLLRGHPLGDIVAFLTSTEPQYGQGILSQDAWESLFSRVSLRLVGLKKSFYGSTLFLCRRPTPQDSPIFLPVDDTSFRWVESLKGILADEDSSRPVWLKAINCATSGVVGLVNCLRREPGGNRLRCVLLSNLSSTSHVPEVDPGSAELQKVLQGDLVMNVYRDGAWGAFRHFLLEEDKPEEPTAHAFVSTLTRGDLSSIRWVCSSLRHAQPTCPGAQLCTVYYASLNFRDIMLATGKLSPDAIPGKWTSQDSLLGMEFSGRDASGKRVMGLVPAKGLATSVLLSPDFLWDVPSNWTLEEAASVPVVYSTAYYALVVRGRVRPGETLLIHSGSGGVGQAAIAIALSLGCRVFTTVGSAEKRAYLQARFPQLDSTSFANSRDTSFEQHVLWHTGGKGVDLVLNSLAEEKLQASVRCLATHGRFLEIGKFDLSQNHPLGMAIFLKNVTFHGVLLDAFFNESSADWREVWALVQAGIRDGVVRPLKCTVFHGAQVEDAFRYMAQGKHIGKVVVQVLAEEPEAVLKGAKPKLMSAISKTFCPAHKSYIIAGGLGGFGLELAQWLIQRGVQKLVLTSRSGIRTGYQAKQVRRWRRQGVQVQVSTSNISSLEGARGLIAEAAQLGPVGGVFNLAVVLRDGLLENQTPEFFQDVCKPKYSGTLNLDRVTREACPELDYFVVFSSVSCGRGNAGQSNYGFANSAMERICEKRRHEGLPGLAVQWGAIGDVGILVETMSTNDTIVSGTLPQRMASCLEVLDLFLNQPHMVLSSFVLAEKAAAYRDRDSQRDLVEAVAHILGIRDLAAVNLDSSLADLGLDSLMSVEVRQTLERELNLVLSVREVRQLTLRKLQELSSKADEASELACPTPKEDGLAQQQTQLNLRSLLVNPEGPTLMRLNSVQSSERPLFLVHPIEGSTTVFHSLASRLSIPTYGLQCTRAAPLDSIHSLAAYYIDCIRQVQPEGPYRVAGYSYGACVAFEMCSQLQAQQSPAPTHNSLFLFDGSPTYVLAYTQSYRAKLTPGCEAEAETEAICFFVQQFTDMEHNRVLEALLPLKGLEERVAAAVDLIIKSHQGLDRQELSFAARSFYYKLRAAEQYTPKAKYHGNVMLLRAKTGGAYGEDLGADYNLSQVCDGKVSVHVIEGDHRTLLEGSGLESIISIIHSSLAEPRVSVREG

`Cc1ccc(C(=O)N2CCC(c3ccc(C#N)cc3)CC2)cc1NC(=O)NCc1ccccn1` [Example 52, 1-[5-[4-(4-cyanophenyl)piperidine-1-carbonyl]-2-methyl-phenyl]-3-(pyridin-2-ylmethyl)urea]: the inhibition (as a rule, the change of the read-out against control, counted positive when it falls) at 100 µM stood at 94.4%.

Take `Cc1ccc(C(=O)N2CCC(c3ccc(C#N)cc3)CC2)cc1NC(=O)NCCCNC(=O)N1CCOCC1` [Example 233, N-[3-[[5-[4-(4-cyanophenyl)piperidine-1-carbonyl]-2-methyl-phenyl]carbamoylamino]propyl]morpholine-4-carboxamide]: the inhibition at 100 µM stood at 86.5%. On to `Cc1ccc(C(=O)N2CCC(c3ccc(C#N)cc3)CC2)cc1NC(=O)N(C)CCNC(=O)C(C)C` [N-[2-[[5-[4-(4-cyanophenyl)piperidine-1-carbonyl]-2-methylphenyl]carbamoyl-methylamino]ethyl]-2-methylpropanamide], for which the “IC50, inhibition of human Fatty Acid Synthase” value (“IC50, inhibition” below) is given as “do not have IC50s in the range of about 0.001 μM to about 30 μM”. For `Cc1ccc(NC(=O)NCCc2ccccc2)cc1C(=O)N1CCC(c2ccc(C#N)cc2)CC1` [Example 26, 1-[3-[4-(4-cyanophenyl)piperidine-1-carbonyl]-4-methyl-phenyl]-3-phenethyl-urea], the inhibition at 100 µM was 82.9%. In the case of `CC(=O)OCC(=O)NCCNC(=O)Nc1cc(C(=O)N2CCC(c3ccc(C#N)cc3)CC2)ccc1C` [Example 113, 2-[[5-[4-(4-cyanophenyl)piperidine-1-carbonyl]-2-methyl-phenyl]carbamoylamino]ethylcarbamoylmethyl acetate], the inhibition at 100 µM was 92.7%. As to `Cc1ccc(NC(=O)N(C)C)cc1C(=O)N1CCC(c2ccc(C#N)cc2)CC1` [Example 380, 3-[3-[4-(4-cyanophenyl)piperidine-1-carbonyl]-4-methylphenyl]-1,1-dimethylurea], the inhibition at 100 µM is 74.8%. For the compound `CCCN1CCC(NC(=O)Nc2cc(C(=O)N3CCC(c4ccc(C#N)cc4)CC3)ccc2C)CC1` [Example 79, 3-[5-[4-(4-cyanophenyl)piperidine-1-carbonyl]-2-methyl-phenyl]-1-(1-propyl-4-piperidyl)urea], the inhibition at 100 µM amounted to 95.4%. Consider `Cc1ccc(C(=O)N2CCC(c3ccc(C#N)cc3)CC2)cc1NC(=O)NCCN1CCCC1` [Example 137, 1-[5-[4-(4-cyanophenyl)piperidine-1-carbonyl]-2-methyl-phenyl]-3-(2-pyrrolidin-1-ylethyl)urea], for which the inhibition at 100 µM came to 87.9%. Regarding `Cc1ccc(NC(=O)NCc2cccc(C#N)c2)cc1C(=O)N1CCC(c2ccc(C#N)cc2)CC1` [Example 47, 3-[(3-cyanophenyl)methyl]-1-[3-[4-(4-cyanophenyl)piperidine-1-carbonyl]-4-methyl-phenyl]urea], the inhibition at 100 µM was 77.4%. With `Cc1ccc(C(=O)N2CCC(c3ccc(C#N)cc3)CC2)cc1NC(=O)N1CCS(=O)(=O)CC1` [N-[5-[4-(4-cyanophenyl)piperidine-1-carbonyl]-2-methylphenyl]-1,1-dioxo-1,4-thiazinane-4-carboxamide], the “IC50, inhibition” value is “do not have IC50s in the range of about 0.001 μM to about 30 μM”.

Consider `Cc1ccc(C(=O)N2CCC(c3ccc(C(=O)N(C)C)cc3)CC2)cc1NC(=O)NCc1ccccc1` [Example 123, 4-[1-[3-(benzylcarbamoylamino)-4-methyl-benzoyl]-4-piperidyl]-N,N-dimethyl-benzamide], for which the inhibition at 100 µM amounted to 79.7%. As for `Cc1ccc(C(=O)N2CCC(c3ccc(C#N)cc3)CC2)cc1NC(=O)NCC(C)C` [Example 42, 1-[5-[4-(4-cyanophenyl)piperidine-1-carbonyl]-2-methyl-phenyl]-3-(2-methylpropyl)urea], the inhibition at 100 µM turned out to be 83.8%. Consider `Cc1ccc(C(=O)N2CCC(c3ccc(C(F)(F)F)cc3)CC2)cc1NC(=O)NC1CCCN(C(=O)OC(C)(C)C)C1` (stereo not drawn) [Example 333, tert-butyl 3-[[2-methyl-5-[4-[4-(trifluoromethyl)phenyl]piperidine-1-carbonyl]phenyl]carbamoylamino]piperidine-1-carboxylate], for which the inhibition at 100 µM was determined as 90.9%. Turning to `Cc1ccc(C(=O)N2CCC(c3ccc(C#N)cc3)CC2)cc1NC(=O)NC1CCOCC1` [Example 162, 1-[5-[4-(4-cyanophenyl)piperidine-1-carbonyl]-2-methyl-phenyl]-3-(oxan-4-yl)urea], the inhibition at 100 µM was determined as 84.2%. Take `Cc1ccc(C(=O)N2CCC(c3ccc(C#N)cc3)CC2)cc1NC(=O)NCCC(N)=O` [Example 126, 3-[[5-[4-(4-cyanophenyl)piperidine-1-carbonyl]-2-methyl-phenyl]carbamoylamino]propanamide]: the inhibition at 100 µM was found to be 87.4%.

For the compound `Cc1ccc(C(=O)N2CCC(c3ccc(C#N)cc3)CC2)cc1NC(=O)NCCc1ccccn1` [Example 60, 1-[5-[4-(4-cyanophenyl)piperidine-1-carbonyl]-2-methyl-phenyl]-3-(2-pyridin-2-ylethyl)urea], the inhibition at 100 µM was 95.3%. Consider `CC(=O)N(C)CCNC(=O)Nc1cc(C(=O)N2CCC(c3ccc(C#N)cc3)CC2)ccc1C` [Example 120, N-[2-[[5-[4-(4-cyanophenyl)piperidine-1-carbonyl]-2-methyl-phenyl]carbamoylamino]ethyl]-N-methyl-acetamide], for which the inhibition at 100 µM worked out at 68.3%. As to `Cc1ccc(C(=O)N2CCC(c3ccc(C#N)cc3)CC2)cc1NC(=O)NC1CN2CCC1CC2` (stereo in doubt) [Example 270, 3-[(8S)-1-azabicyclo[2.2.2]oct-8-yl]-1-[5-[4-(4-cyanophenyl)piperidine-1-carbonyl]-2-methyl-phenyl]urea], the inhibition at 100 µM was found to be 89.4%. Take `C#CCNC(=O)Nc1cc(C(=O)N2CCC(c3ccc(C#N)cc3)CC2)c(C)cc1C` [Example 413, 1-[5-[4-(4-cyanophenyl)piperidine-1-carbonyl]-2,4-dimethylphenyl]-3-prop-2-ynylurea]: the inhibition at 100 µM was found to be 101%.

Consider `Cc1ccc(C(=O)N2CCC(c3ccc(C#N)cc3)CC2)cc1NC(=O)NC1CONC1=O` (stereo not drawn) [Example 383, 1-[5-[4-(4-cyanophenyl)piperidine-1-carbonyl]-2-methylphenyl]-3-(3-oxo-1,2-oxazolidin-4-yl)urea], for which the inhibition at 100 µM worked out at 73.6%.

With `Cc1ccc(C(=O)N2CCC(c3ccc(S(C)(=O)=O)cc3)CC2)cc1NC(=O)NC(C)C` [Example 374, 1-[2-methyl-5-[4-(4-methylsulfonylphenyl)piperidine-1-carbonyl]phenyl]-3-propan-2-ylurea], the inhibition at 100 µM amounted to 71.8%. The same measure, in the same setting: then `Cc1ccc(C(=O)N2CCC(c3ccc(C#N)cc3)CC2)cc1NC(=O)NC1CNC1` [Example 300, 3-(azetidin-3-yl)-1-[5-[4-(4-cyanophenyl)piperidine-1-carbonyl]-2-methyl-phenyl]urea], with 84.3%. For the compound `Cc1ccc(C(=O)N2CCC(c3ccc(C#N)cc3)CC2)cc1NC(=O)NCCCN` [Example 207, 3-(3-aminopropyl)-1-[5-[4-(4-cyanophenyl)piperidine-1-carbonyl]-2-methyl-phenyl]urea], the inhibition at 100 µM was 89.7%. On to `Cc1ccc(C(=O)N2CCC(c3ccc(C#N)cc3)CC2)cc1NC(=O)NCCCN1CCOCC1` [Example 146, 1-[5-[4-(4-cyanophenyl)piperidine-1-carbonyl]-2-methyl-phenyl]-3-(3-morpholin-4-ylpropyl)urea], for which the inhibition at 100 µM amounted to 89.7%. With `Cc1ccc(C(=O)N2CCC(c3ccc(C#N)cc3)CC2)cc1NC(=O)NC1CCCCNC1=O` (stereo not drawn) [Example 133, 1-[5-[4-(4-cyanophenyl)piperidine-1-carbonyl]-2-methyl-phenyl]-3-(2-oxoazepan-3-yl)urea], the inhibition at 100 µM worked out at 81.2%. `Cc1ccc(C(=O)N2CCC(c3ccccc3C#N)CC2)cc1NC(=O)NC(C)C` [1-[5-[4-(2-cyanophenyl)piperidine-1-carbonyl]-2-methylphenyl]-3-propan-2-ylurea]: the “IC50, inhibition” value was “do not have IC50s in the range of about 0.001 μM to about 30 μM”. Take `Cc1ccc(C(=O)N2CCC(c3ccc(C#N)cc3)CC2)cc1NC(=O)NCCNC(=O)CO` [Example 114, N-[2-[[5-[4-(4-cyanophenyl)piperidine-1-carbonyl]-2-methyl-phenyl]carbamoylamino]ethyl]-2-hydroxy-acetamide]: the inhibition at 100 µM came to 89.4%. Take `Cc1ccc(C(=O)N2CCC(c3ccc(C#N)cc3)CC2)cc1NC(=O)N1CCC1` [Example 346, N-[5-[4-(4-cyanophenyl)piperidine-1-carbonyl]-2-methyl-phenyl]azetidine-1-carboxamide]: the inhibition at 100 µM came to 75.5%. Regarding `CCC(=O)NC(C)(C)CNC(=O)Nc1cc(C(=O)N2CCC(c3ccc(C#N)cc3)CC2)ccc1C` [Example 262, N-[1-[[5-[4-(4-cyanophenyl)piperidine-1-carbonyl]-2-methyl-phenyl]carbamoylamino]-2-methyl-propan-2-yl]propanamide], the inhibition at 100 µM is 98.7%. `Cc1ccc(C(=O)N2CCC(c3ccc(Cl)cc3)CC2)cc1NC(=O)NC(C)C` [Example 359, 1-[5-[4-(4-chlorophenyl)piperidine-1-carbonyl]-2-methyl-phenyl]-3-propan-2-yl-urea]: the inhibition at 100 µM turned out to be 92.1%. As to `Cc1ccc(C(=O)N2CCC(c3ccc(C#N)cc3)CC2)cc1NC(=O)N[C@@H](CC(C)C)C(N)=O` [Example 73, (2S)-2-[[5-[4-(4-cyanophenyl)piperidine-1-carbonyl]-2-methyl-phenyl]carbamoylamino]-4-methyl-pentanamide], the inhibition at 100 µM is 78.2%. Same read-out and setting: then `Cc1ccc(C(=O)N2CCC(c3ccc(C#N)cc3)CC2)cc1NC(=O)NC1CCCN(C(=O)OC(C)(C)C)C1` (stereo not drawn) [Example 279, tert-butyl 3-[[5-[4-(4-cyanophenyl)piperidine-1-carbonyl]-2-methyl-phenyl]carbamoylamino]piperidine-1-carboxylate], with 99.4%; and `CC(=O)NCCNC(=O)Nc1cc(C(=O)N2CCC(c3ccc(C#N)cc3)CC2)ccc1C` [Example 55, N-[2-[[5-[4-(4-cyanophenyl)piperidine-1-carbonyl]-2-methyl-phenyl]carbamoylamino]ethyl]acetamide], with 93.2%.
